Laboratory results: ChEMBL document CHEMBL1212936, “Discovery of 2-[1-(4-chlorophenyl)cyclopropyl]-3-hydroxy-8-(trifluoromethyl)quinoline-4-carboxylic acid (PSI-421), a P-selectin inhibitor with improved pharmacokinetic properties and oral efficacy in models of vascular injury” (J Med Chem, 2010)
In brackets after ≈: the same amount, converted by molar mass. Activity calls are given as the source filed them. No cut-off for these calls is given here.

Legend:
[1] = Physiological stability of the compound at pH 1 assessed as compound remaining after 16 hrs in presence of 20% acetonitrile; type: physicochemical; conditions: read-out: Stability
Plasma [2] = test: Drug level in Sprague-Dawley rat plasma at 15 mg/kg, po; type: ADME, organism-based; parameters: dose 15 mg/kg, route oral; conditions: in vivo
[3] = Half life in Beagle dog liver microsomes; type: ADME, Canis lupus familiaris, Microsome
[4] = Physiological stability of the compound at pH 4.5 assessed as compound remaining after 24 hrs in presence of 20% acetonitrile; type: physicochemical; conditions: read-out: Stability
Rattus norvegicus [5] = test: Inhibition of leukocytes rolling flux in acute intravital microscopy model of Sprague-Dawley rat cremasteric postcapillary venules at 15 mg/kg, po after 35 mins relative to control; type: functional
[6] = Physiological stability of the compound at pH 6.6 assessed as compound remaining after 8 hrs in presence of 20% acetonitrile; type: physicochemical; conditions: read-out: Stability
[7] = Physiological stability of the compound at pH 6.6 assessed as compound remaining after 16 hrs in presence of 20% acetonitrile; type: physicochemical; conditions: read-out: Stability
Plasma [8] = test: Drug level in Sprague-Dawley rat plasma at 30 mg/kg, po; type: ADME, organism-based; parameters: dose 30 mg/kg, route oral; conditions: in vivo
[9] = Half life in C57B6 mouse liver microsomes; type: ADME, Microsome
Canis familiaris = test: Dose normalized AUC in Beagle dog measured per mg of plasma at 2 mg/kg, iv and 10 mg/kg, po; type: ADME, organism-based, Canis lupus familiaris; conditions: in vivo
[10] = Oral bioavailability in C57B6 mouse at 10 mg/kg; type: ADME, organism-based; conditions: in vivo
[11] = Half life in cynomolgus monkey liver microsomes; type: ADME, Macaca fascicularis, Microsome
[12] = Physiological stability of the compound in simulated intestinal bile salts-lecithin mixture fluid assessed as compound remaining after 12 hrs in presence of 20% acetonitrile; type: physicochemical; conditions: read-out: Stability
[13] = Physiological stability of the compound in simulated intestinal fluid assessed as compound remaining after 20 hrs in presence of 20% acetonitrile; type: physicochemical; conditions: read-out: Stability
[14] = Physiological stability of the compound in simulated intestinal fluid assessed as compound remaining after 4 hrs in presence of 20% acetonitrile; type: physicochemical; conditions: read-out: Stability
[15] = Physiological stability of the compound at pH 6.6 assessed as compound remaining after 4 hrs in presence of 20% acetonitrile; type: physicochemical; conditions: read-out: Stability
[16] = Clearance in Beagle dog at 2 mg/kg, iv and 10 mg/kg, po; type: ADME, organism-based, Canis lupus familiaris; conditions: in vivo
[17] = Oral bioavailability in Beagle dog at 10 mg/kg; type: ADME, organism-based, Canis lupus familiaris; conditions: in vivo
[18] = Physiological stability of the compound at pH 4.5 assessed as compound remaining after 4 hrs in presence of 20% acetonitrile; type: physicochemical; conditions: read-out: Stability
[19] = Physiological stability of the compound at pH 1 assessed as compound remaining after 20 hrs in presence of 20% acetonitrile; type: physicochemical; conditions: read-out: Stability
[20] = Physiological stability of the compound at pH 4.5 assessed as compound remaining after 12 hrs in presence of 20% acetonitrile; type: physicochemical; conditions: read-out: Stability
[21] = Clearance in C57B6 mouse at 2 mg/kg, iv and 10 mg/kg, po; type: ADME, organism-based; conditions: in vivo
Papio anubis [22] = test: Toxicity in Baboon deep vein thrombosis model assessed as induction of coagulation at 1 mg/kg, po; type: organism-based; parameters: dose 1 mg/kg, route oral; conditions: in vivo
[23] = molecular target: T1, P-selectin glycoprotein ligand 1 (Homo sapiens) (UniProt Q14242); test: Binding affinity to recombinant PSGL-1 assessed as saturation transfer difference at 100 uM by NMR analysis
T1 sequence (whole entry): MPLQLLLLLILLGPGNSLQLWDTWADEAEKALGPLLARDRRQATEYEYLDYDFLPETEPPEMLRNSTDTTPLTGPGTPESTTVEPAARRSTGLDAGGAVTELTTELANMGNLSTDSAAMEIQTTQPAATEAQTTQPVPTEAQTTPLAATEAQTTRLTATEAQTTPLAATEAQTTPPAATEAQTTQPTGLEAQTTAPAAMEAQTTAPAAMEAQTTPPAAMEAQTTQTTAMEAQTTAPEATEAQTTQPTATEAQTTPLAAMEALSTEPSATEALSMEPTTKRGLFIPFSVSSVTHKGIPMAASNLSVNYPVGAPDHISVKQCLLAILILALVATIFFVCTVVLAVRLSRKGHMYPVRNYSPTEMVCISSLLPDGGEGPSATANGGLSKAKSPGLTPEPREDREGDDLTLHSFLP

[24] = Aqueous solubility of the compound at pH 9; type: physicochemical; conditions: aqueous solution, read-out: solubility
[25] = Physiological stability of the compound at pH 1 assessed as compound remaining after 12 hrs in presence of 20% acetonitrile; type: physicochemical; conditions: read-out: Stability
Rattus norvegicus [26] = test: Inhibition of leukocytes rolling flux in acute intravital microscopy model of Sprague-Dawley rat cremasteric postcapillary venules at 3 mg/kg, po after 35 mins relative to control; type: functional
[27] = Physiological stability of the compound at pH 7.4 assessed as compound remaining after 4 hrs in presence of 20% acetonitrile; type: physicochemical; conditions: read-out: Stability
[28] = Physiological stability of the compound at pH 1 assessed as compound remaining after 4 hrs in presence of 20% acetonitrile; type: physicochemical; conditions: read-out: Stability
[29] = Physiological stability of the compound in simulated intestinal bile salts-lecithin mixture fluid assessed as compound remaining after 4 hrs in presence of 20% acetonitrile; type: physicochemical; conditions: read-out: Stability
Papio anubis [30] = test: Antithrombotic activity in Baboon deep vein thrombosis model assessed as vein opening at 1 mg/kg, po; type: functional, organism-based; parameters: dose 1 mg/kg
[31] = Physiological stability of the compound at pH 4.5 assessed as compound remaining after 20 hrs in presence of 20% acetonitrile; type: physicochemical; conditions: read-out: Stability
[32] = Genotoxicity in Salmonella Typhimurium by Ames test; type: toxicity; conditions: salmonella enterica subsp. enterica serovar typhimurium
[33] = Physiological stability of the compound at pH 7.4 assessed as compound remaining after 24 hrs in presence of 20% acetonitrile; type: physicochemical; conditions: read-out: Stability
[34] = Solubility of the compound in fed simulated intestinal bile salts-lecithin mixture fluid at pH 5.5; type: physicochemical
[35] = Physiological stability of the compound at pH 6.6 assessed as compound remaining after 20 hrs in presence of 20% acetonitrile; type: physicochemical; conditions: read-out: Stability
[36] = Oral bioavailability in Sprague-Dawley rat at 10 mg/kg; type: ADME, organism-based; conditions: in vivo
[37] = Physiological stability of the compound at pH 9 assessed as compound remaining after 12 hrs in presence of 20% acetonitrile; type: physicochemical; conditions: read-out: Stability
Mus musculus = test: Reduction of leukocytes rolling flux in acute intravital microscopy model of C57B6 mouse cremasteric postcapillary venules at 50 mg/kg, po after 35 mins relative to control; type: functional; parameters: scale not given: the % may be the effect or the level left
[38] = Physiological stability of the compound at pH 9 assessed as compound remaining after 24 hrs in presence of 20% acetonitrile; type: physicochemical; conditions: read-out: Stability
Plasma [39] = test: Drug level in Sprague-Dawley rat plasma at 7.5 mg/kg, po; type: ADME, organism-based; parameters: dose 7.5 mg/kg, route oral; conditions: in vivo
[40] = Oral bioavailability in cynomolgus monkey at 5 mg/kg; type: ADME, organism-based, Macaca fascicularis; conditions: in vivo
Rattus norvegicus [41] = test: Inhibition of leukocytes rolling flux in acute intravital microscopy model of Sprague-Dawley rat cremasteric postcapillary venules at 7.5 mg/kg, po after 35 mins relative to control; type: functional
[42] = Physiological stability of the compound in simulated intestinal bile salts-lecithin mixture fluid assessed as compound remaining after 8 hrs in presence of 20% acetonitrile; type: physicochemical; conditions: read-out: Stability
[43] = Physiological stability of the compound at pH 4.5 assessed as compound remaining after 16 hrs in presence of 20% acetonitrile; type: physicochemical; conditions: read-out: Stability
[44] = Physiological stability of the compound at pH 1 assessed as compound remaining after 8 hrs in presence of 20% acetonitrile; type: physicochemical; conditions: read-out: Stability

O=C(O)c1c(O)c(C2(c3ccc(Cl)cc3)CC2)nc2c(C(F)(F)F)cccc12
remaining at 16 h [1]: 102% | Cp (Plasma [2]): 24 µg/mL | half-life [3]: > 60 min | remaining at 24 h [4]: 102% | inhibition in vivo at 15 mg/kg (Rattus norvegicus [5]): 51% | remaining at 8 h [6]: 104% | remaining at 16 h [7]: 103% | Cp (Plasma [8]): 38 µg/mL | half-life [9]: > 60 min | AUC (Canis familiaris): 28862 ng·h/mL | bioavailability [10]: 67% | half-life [11]: > 60 min | remaining at 12 h [12]: 101% | remaining at 20 h [13]: 99.4% | remaining at 4 h [14]: 101% | remaining at 4 h [15]: 102% | clearance [16]: 0.9 mL/min/kg | bioavailability [17]: 100% | remaining at 4 h [18]: 102% | remaining at 20 h [19]: 102% | remaining at 12 h [20]: 99.2% | clearance [21]: 7 mL/min/kg | Activity (Papio anubis [22]): Non-toxic | Activity [23]: 9% | solubility [24]: 1070 µg/mL (≈ 2630 µM) | remaining at 12 h [25]: 102% | inhibition in vivo at 3 mg/kg (Rattus norvegicus [26]): 12% | remaining at 4 h [27]: 102% | remaining at 4 h [28]: 101% | remaining at 4 h [29]: 102% | Activity (Papio anubis [30]): Active | remaining at 20 h [31]: 100% | Activity [32]: Non-toxic | remaining at 24 h [33]: 103% | solubility [34]: 835 µg/mL | remaining at 20 h [35]: 102% | bioavailability [36]: 67% | remaining at 12 h [37]: 98.8% | Activity (Mus musculus): 69% | remaining at 24 h [38]: 99.6% | Cp (Plasma [39]): 6 µg/mL | bioavailability [40]: 96% | inhibition in vivo at 7.5 mg/kg (Rattus norvegicus [41]): 47% | remaining at 8 h [42]: 101% | remaining at 16 h [43]: 101% | remaining at 8 h [44]: 102%
